Several values for one entry are separate records, joined by “and”; a condition that tells them apart may be missing. Equal values may be shown once.
Tests used:
5-HT2B [1] = target: T1, 5-HT2B (Homo sapiens, UniProt P41595); test: Gq-mediated calcium flux in HEK293 cells, h5-HT2B; format: cell-based
5-HT1D = 5-HT1D (Homo sapiens, UniProt P28221); test: NIMH PDSP competitive binding, 5-HT1D; conditions: [3H]GR125743; cloned receptor; mean ± SEM
α2A = α2A (Homo sapiens, UniProt P08913); test: NIMH PDSP competitive binding, α2A; conditions: [3H]rauwolscine; cloned receptor; mean ± SEM
5-HT5A = 5-HT5A (Homo sapiens, UniProt P47898); test: NIMH PDSP competitive binding, 5-HT5A; conditions: [3H]LSD; cloned receptor; mean ± SEM
C57BL/6J mice = test: Head twitch response; format: in vivo, mouse; conditions: for HTR Counts (Mean ± SEM): 30 min
H2 = H2 (Homo sapiens, UniProt P25021); test: NIMH PDSP competitive binding, H2; conditions: [3H]tiotidine; cloned receptor; mean ± SEM
β3 = β3 (Homo sapiens, UniProt P13945); test: NIMH PDSP competitive binding, β3; conditions: [3H]CGP12177; cloned receptor; mean ± SEM
α2C = α2C (Homo sapiens, UniProt P18825); test: NIMH PDSP competitive binding, α2C; conditions: [3H]rauwolscine; cloned receptor; mean ± SEM
α1B = α1B (Homo sapiens, UniProt P35368); test: NIMH PDSP competitive binding, α1B; conditions: [3H]prazosin; cloned receptor; mean ± SEM
Sequence of α1B (P35368 whole entry): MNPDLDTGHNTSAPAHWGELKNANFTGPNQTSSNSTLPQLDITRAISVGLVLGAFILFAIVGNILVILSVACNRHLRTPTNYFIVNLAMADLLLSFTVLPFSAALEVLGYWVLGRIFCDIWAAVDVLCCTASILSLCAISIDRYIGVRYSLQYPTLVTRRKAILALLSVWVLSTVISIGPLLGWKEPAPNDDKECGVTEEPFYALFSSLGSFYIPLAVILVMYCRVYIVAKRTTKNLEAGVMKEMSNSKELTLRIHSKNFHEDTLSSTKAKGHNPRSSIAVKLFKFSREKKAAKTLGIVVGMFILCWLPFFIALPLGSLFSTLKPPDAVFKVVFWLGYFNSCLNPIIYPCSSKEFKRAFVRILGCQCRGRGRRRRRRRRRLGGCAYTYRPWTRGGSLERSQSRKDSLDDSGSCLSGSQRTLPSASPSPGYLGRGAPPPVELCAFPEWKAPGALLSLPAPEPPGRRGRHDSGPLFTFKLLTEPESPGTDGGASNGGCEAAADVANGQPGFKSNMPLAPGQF

β2 = β2 (Homo sapiens, UniProt P07550); test: NIMH PDSP competitive binding, β2
Sequence of β2 (P07550 whole entry): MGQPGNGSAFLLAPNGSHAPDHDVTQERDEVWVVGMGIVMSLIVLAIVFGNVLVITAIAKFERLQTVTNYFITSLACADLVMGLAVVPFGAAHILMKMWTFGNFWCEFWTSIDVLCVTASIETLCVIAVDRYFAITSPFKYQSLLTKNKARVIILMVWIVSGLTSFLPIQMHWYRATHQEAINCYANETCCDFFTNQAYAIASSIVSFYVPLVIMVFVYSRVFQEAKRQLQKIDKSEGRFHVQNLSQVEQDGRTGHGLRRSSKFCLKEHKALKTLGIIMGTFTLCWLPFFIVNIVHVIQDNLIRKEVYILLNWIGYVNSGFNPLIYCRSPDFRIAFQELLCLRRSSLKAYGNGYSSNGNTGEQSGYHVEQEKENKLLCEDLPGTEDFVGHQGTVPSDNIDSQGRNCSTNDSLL

D5 = D5 (Homo sapiens, UniProt P21918); test: NIMH PDSP competitive binding, D5; conditions: [3H]SCH23390; cloned receptor; mean ± SEM
D4 = D4 (Homo sapiens, UniProt P21917); test: NIMH PDSP competitive binding, D4; conditions: [3H]N-methylspiperone; cloned receptor; mean ± SEM
α2B = α2B (Homo sapiens, UniProt P18089); test: NIMH PDSP competitive binding, α2B; conditions: [3H]rauwolscine; cloned receptor; mean ± SEM
Sequence of α2B (P18089 whole entry): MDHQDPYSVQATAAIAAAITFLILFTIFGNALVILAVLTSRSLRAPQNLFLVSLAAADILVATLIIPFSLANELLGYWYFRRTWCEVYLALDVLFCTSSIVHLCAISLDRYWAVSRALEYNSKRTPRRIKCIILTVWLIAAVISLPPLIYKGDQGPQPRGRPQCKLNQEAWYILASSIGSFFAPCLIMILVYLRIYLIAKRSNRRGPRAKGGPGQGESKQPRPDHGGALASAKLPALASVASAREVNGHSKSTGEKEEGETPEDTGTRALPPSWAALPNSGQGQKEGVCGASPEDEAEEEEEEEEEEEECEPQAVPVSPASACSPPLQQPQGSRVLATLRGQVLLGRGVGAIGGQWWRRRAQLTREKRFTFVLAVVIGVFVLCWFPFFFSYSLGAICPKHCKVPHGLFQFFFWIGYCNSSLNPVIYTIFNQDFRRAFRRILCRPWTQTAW

5-HT2A [2] = target: T2, 5-HT2A (Homo sapiens, UniProt P28223); test: Gq-mediated calcium flux in HEK293 cells, h5-HT2A; format: cell-based
T2 sequence (P28223 whole entry): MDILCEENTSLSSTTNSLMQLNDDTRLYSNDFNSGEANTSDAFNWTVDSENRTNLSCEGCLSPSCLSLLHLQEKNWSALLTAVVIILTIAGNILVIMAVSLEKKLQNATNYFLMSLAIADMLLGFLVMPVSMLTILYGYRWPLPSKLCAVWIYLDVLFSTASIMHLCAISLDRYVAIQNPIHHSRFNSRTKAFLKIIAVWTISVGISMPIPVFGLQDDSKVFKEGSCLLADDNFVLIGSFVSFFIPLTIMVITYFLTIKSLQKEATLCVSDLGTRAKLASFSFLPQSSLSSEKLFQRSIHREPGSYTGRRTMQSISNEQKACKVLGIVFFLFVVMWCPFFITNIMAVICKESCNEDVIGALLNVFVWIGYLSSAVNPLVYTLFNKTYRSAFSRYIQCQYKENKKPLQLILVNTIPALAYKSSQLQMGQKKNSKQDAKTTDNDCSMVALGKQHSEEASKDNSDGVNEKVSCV

5-HT1A = 5-HT1A (Homo sapiens, UniProt P08908); test: NIMH PDSP competitive binding, 5-HT1A; conditions: [3H]8-OH-DPAT; cloned receptor; mean ± SEM
H4 = H4 (Homo sapiens, UniProt Q9H3N8); test: NIMH PDSP competitive binding, H4
Sequence of H4 (Q9H3N8 whole entry): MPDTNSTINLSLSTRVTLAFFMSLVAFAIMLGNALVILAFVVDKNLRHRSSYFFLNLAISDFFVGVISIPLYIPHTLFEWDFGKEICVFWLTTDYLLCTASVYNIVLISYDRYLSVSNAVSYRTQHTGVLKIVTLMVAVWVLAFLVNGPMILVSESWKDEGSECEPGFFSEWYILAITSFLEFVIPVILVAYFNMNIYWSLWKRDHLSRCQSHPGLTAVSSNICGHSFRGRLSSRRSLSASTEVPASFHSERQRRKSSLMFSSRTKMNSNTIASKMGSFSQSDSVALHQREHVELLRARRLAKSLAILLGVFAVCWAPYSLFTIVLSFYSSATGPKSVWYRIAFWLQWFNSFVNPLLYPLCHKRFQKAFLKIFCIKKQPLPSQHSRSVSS

5-HT6 = 5-HT6 (Homo sapiens, UniProt P50406); test: NIMH PDSP competitive binding, 5-HT6; conditions: [3H]LSD; cloned receptor; mean ± SEM
5-HT7 = 5-HT7 (Homo sapiens, UniProt P34969); test: NIMH PDSP competitive binding, 5-HT7; conditions: [3H]LSD; cloned receptor; mean ± SEM
Sequence of 5-HT7 (P34969 whole entry): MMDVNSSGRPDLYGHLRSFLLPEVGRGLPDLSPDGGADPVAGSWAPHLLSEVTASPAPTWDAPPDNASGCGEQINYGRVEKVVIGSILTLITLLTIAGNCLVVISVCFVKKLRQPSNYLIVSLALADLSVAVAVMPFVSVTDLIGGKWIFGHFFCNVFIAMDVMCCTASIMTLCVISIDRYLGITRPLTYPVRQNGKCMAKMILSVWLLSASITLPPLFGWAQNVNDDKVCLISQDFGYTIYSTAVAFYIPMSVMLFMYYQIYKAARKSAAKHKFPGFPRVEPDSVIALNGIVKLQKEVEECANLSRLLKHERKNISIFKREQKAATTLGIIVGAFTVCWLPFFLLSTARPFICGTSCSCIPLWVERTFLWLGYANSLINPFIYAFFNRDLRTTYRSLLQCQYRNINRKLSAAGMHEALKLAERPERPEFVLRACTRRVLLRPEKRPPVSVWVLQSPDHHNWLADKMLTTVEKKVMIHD

5-HT1B = 5-HT1B (Homo sapiens, UniProt P28222); test: NIMH PDSP competitive binding, 5-HT1B; conditions: [3H]GR125743; cloned receptor; mean ± SEM
α1A = α1A (Homo sapiens, UniProt P35348); test: NIMH PDSP competitive binding, α1A; conditions: [3H]prazosin; cloned receptor
Sequence of α1A (P35348 whole entry): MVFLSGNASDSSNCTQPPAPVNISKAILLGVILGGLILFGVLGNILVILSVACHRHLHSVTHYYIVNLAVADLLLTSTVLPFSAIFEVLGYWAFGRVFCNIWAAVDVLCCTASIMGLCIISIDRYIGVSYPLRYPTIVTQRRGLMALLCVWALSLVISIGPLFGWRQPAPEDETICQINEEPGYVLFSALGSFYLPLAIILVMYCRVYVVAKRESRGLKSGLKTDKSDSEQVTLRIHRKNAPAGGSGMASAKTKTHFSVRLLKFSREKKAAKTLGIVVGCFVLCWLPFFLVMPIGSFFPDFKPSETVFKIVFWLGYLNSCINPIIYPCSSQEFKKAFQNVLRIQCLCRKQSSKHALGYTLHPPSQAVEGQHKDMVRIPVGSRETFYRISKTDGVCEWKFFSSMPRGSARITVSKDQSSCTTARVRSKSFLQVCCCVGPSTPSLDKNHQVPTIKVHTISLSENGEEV

β1 = β1 (Homo sapiens, UniProt P08588); test: NIMH PDSP competitive binding, β1; conditions: primary binding assay
human 5-HT2C INI = target: T3, human 5-HT2C INI (Homo sapiens, UniProt P28335); test: Gq-mediated calcium flux in HEK293 cells, h5-HT2C; format: cell-based
T3 sequence (P28335 33-458): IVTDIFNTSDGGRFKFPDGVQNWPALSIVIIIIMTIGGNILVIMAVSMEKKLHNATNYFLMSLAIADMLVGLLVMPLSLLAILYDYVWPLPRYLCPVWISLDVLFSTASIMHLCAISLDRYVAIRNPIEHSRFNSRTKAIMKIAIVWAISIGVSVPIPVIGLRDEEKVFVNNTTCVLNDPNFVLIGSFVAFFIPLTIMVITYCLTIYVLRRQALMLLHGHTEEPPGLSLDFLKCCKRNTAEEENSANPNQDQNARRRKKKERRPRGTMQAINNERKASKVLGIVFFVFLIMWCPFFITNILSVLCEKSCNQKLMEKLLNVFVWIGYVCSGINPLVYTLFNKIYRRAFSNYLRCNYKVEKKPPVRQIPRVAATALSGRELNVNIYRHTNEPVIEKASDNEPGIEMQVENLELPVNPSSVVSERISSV

α1D = α1D (Homo sapiens, UniProt P25100); test: NIMH PDSP competitive binding, α1D; conditions: [3H]prazosin; cloned receptor
Sequence of α1D (P25100 whole entry): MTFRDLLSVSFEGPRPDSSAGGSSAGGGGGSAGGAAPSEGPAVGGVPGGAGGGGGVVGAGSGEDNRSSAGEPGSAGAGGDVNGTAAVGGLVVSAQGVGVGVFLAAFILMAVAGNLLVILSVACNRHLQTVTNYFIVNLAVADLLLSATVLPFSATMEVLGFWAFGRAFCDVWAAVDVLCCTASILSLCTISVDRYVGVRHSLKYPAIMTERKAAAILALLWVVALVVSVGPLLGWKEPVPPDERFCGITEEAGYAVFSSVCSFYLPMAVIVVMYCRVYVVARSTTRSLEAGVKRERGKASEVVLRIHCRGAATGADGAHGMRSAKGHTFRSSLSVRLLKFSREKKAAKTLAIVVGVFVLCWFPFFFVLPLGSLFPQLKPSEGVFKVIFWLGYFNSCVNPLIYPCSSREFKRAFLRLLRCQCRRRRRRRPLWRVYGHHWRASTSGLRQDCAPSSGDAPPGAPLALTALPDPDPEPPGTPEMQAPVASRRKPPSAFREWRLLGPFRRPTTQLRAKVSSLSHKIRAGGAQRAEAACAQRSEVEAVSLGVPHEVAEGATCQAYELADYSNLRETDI

H3 = H3 (Cavia porcellus, UniProt Q9JI35); test: NIMH PDSP competitive binding, H3; conditions: primary binding assay
D2 = D2 (Homo sapiens, UniProt P14416); test: NIMH PDSP competitive binding, D2; conditions: [3H]N-methylspiperone; cloned receptor; mean ± SEM
5-HT2B [3] = target: T1, 5-HT2B; test: NIMH PDSP competitive binding, 5-HT2B; conditions: [3H]LSD; cloned receptor; mean ± SEM
D1 = D1 (Homo sapiens, UniProt P21728); test: NIMH PDSP competitive binding, D1; conditions: [3H]SCH23390; cloned receptor; mean ± SEM
D3 = D3 (Homo sapiens, UniProt P35462); test: NIMH PDSP competitive binding, D3; conditions: [3H]N-methylspiperone; cloned receptor; mean ± SEM
5-HT2A [4] = target: T2, 5-HT2A; test: NIMH PDSP competitive binding, 5-HT2A; conditions: [3H]ketanserin; cloned receptor; mean ± SEM
H1 = H1 (Homo sapiens, UniProt P35367); test: NIMH PDSP competitive binding, H1
Sequence of H1 (P35367 whole entry): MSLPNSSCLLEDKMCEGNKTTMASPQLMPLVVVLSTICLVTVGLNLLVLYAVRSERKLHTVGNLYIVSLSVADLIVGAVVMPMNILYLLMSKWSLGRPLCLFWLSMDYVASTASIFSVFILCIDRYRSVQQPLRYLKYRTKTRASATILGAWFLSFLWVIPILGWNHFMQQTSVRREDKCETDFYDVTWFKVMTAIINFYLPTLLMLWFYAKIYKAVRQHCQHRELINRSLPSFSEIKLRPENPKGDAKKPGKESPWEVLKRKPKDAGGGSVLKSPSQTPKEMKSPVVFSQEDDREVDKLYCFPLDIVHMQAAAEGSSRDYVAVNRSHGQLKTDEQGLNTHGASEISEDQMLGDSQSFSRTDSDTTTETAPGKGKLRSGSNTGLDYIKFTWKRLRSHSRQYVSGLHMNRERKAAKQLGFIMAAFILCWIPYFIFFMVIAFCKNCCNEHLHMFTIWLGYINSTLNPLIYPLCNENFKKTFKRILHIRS

5-HT2C = 5-HT2C (Homo sapiens, UniProt P28335); test: NIMH PDSP competitive binding, 5-HT2C
[5] = Ca2+ mobilization, HEK293 cells
[6] = percent 5-HT maximum response, mean ± SEM

T1 sequence (P41595 whole entry): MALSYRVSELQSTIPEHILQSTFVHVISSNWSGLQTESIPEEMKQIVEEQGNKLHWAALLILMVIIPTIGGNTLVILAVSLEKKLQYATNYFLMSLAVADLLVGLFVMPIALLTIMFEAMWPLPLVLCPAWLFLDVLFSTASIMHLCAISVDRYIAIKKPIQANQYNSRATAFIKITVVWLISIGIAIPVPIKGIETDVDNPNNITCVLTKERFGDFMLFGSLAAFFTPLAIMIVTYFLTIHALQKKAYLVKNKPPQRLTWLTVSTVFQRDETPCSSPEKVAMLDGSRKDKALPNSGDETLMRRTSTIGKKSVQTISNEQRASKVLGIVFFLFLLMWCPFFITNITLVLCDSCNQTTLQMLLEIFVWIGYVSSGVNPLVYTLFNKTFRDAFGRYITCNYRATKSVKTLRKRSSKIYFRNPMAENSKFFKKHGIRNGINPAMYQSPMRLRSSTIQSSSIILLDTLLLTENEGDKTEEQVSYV

Compound: CCN(C(=O)[C@@H]1C=C2c3cccc4[nH]cc(c34)C[C@H]2N(C)C1)C1CC1 [ECPLA, N-ethyl-N-cyclopropyl lysergamide]
- EC50 (5-HT2B [1]; [5]): 36.7 nM
- pEC50 ± SEM (5-HT2B [1]; [5]): 7.44 ± 0.06
- Emax % 5-HT (5-HT2B [1]; [6]): 73 % 5-HT and 73 ± 2 % 5-HT
- Ki (5-HT1D): 12.6 ± 1.9 nM
- Ki (α2A): 144 ± 64 nM
- Ki (5-HT5A): 8.6 ± 4.2 nM
- HTR Counts (Mean ± SEM) (C57BL/6J mice; 0.1 mg/kg IP): 17.7 ± 2.6
- HTR Counts (Mean ± SEM) (C57BL/6J mice; 0.3 mg/kg IP): 34.6 ± 5.1
- HTR Counts (Mean ± SEM) (C57BL/6J mice; 1 mg/kg IP): 28.2 ± 2.6
- ED50, nmol/kg (95% CI) (C57BL/6J mice; IP, entire 30-min test session): 317.2 (213.2–471.9) nmol/kg
- ED50, μg/kg (95% CI) (C57BL/6J mice; IP, entire 30-min test session): 130.2 (87.5–193.7) μg/kg
- dose of peak HTR response (C57BL/6J mice; biphasic inverted-U-shaped dose-response, IP): 0.3 mg/kg
- Ki (H2): 890 ± 137 nM
- Ki (β3): 2420 ± 639 nM
- Ki (α2C): 438 ± 118 nM
- Ki (α1B): 1950 ± 152 nM
- Ki (β2; [3H]CGP12177, cloned receptor, IC50 > 10 μM in the primary binding assay): > 10000 nM
- displacement at 10 μM (β2; primary binding assay, 10 μM): < 50%
- Ki (D5): 1500 ± 386 nM
- Ki (D4): 92.3 ± 11.9 nM
- Ki (α2B): 62.3 ± 15.1 nM
- EC50 (5-HT2A [2]; [5]): 14.6 nM
- pEC50 ± SEM (5-HT2A [2]; [5]): 7.84 ± 0.04
- Emax % 5-HT (5-HT2A [2]; [6]): 91 % 5-HT and 91 ± 1 % 5-HT
- Ki (5-HT1A): 3.2 ± 0.5 nM
- Ki (H4; [3H]histamine, cloned receptor, IC50 > 10 μM in the primary binding assay): > 10000 nM
- displacement at 10 μM (H4; primary binding assay, 10 μM): < 50%
- Ki (5-HT6): 21.7 ± 4.4 nM
- Ki (5-HT7): 27.3 ± 11.5 nM
- Ki (5-HT1B): 42.3 ± 8.7 nM
- Ki (α1A): > 10000 nM
- displacement at 10 μM (β1): < 50%
- EC50 (human 5-HT2C INI; [5]): 183 nM
- pEC50 ± SEM (human 5-HT2C INI; [5]): 6.74 ± 0.09
- Emax % 5-HT (human 5-HT2C INI; [6]): 73 % 5-HT and 73 ± 3 % 5-HT
- Ki (α1D): > 10000 nM
- displacement at 10 μM (H3): < 50%
- Ki (D2): 150 ± 32 nM
- Ki (5-HT2B [3]): 5.3 ± 1.3 nM
- Ki (D1): 502 ± 122 nM
- Ki (D3): 104 ± 29 nM
- Ki (5-HT2A [4]): 16.5 ± 6 nM
- Ki (H1; [3H]pyrilamine, cloned receptor, IC50 > 10 μM in the primary binding assay): > 10000 nM
- displacement at 10 μM (H1; primary binding assay, 10 μM): < 50%
- fold lower affinity than LSD for the 5-HT2C receptor (5-HT2C; ECPLA Ki 85.7 nM vs LSD Ki 30 nM): ~3 fold
- Ki (5-HT2C; [3H]mesulergine, cloned receptor, mean ± SEM): 85.7 ± 31.2 nM

Reference: publication PMC6848745 (Psychopharmacology, 2018)
